Patent publication US20200163913A1 (Shanghai Huali Biomedical Co., Ltd., priority 2017, published 2020)
Like-named read-outs stand apart in the source and are kept apart here.

Assays:
[1] = test system: human cervical cancer cell HeLa; experiment: CCK-8 cell proliferation inhibition, HeLa; assay type: cell-based; settings: Homo sapiens, HeLa, 72 h, read-out: IC50 Hela
Experimental: (§1) Take more than 90% of live cells for experiments. Cell proliferation inhibition test uses EnoGeneCell™ Counting Kit-8 (CCK-8) cell viability detection kit. Cells are digested and counted to make a cell suspension with a concentration of 1×10^5 cells/mL, 100 μL of cell suspension (1×10^4 cells per well) was added to each well of a 96-well plate; Incubate in a 5% CO2 incubator for 24 hours; add 100 μL of the corresponding drug-containing culture medium to each well, and set a negative control group, a vehicle control group, and a positive control group, with 5 replicates in each group; place the 96-well plate at 37° C.

[2] = test system: human lung cancer cell A549; experiment: CCK-8 cell proliferation inhibition, A549; assay type: cell-based; settings: read-out: IC50 A549
Experimental: as §1

[3] = test system: human colon cancer cell HCT-116; experiment: CCK-8 cell proliferation inhibition, HCT-116; assay type: cell-based; settings: Homo sapiens, HCT-116, 72 h, read-out: IC50 HTC116
Experimental: as §1

[4] = test system: human liver cancer cell HepG2; experiment: CCK-8 cell proliferation inhibition, HepG2; assay type: cell-based; settings: Homo sapiens, read-out: IC50 HepG2
Experimental: as §1

[5] = test system: human gastric cancer cell MKN45; experiment: CCK-8 cell proliferation inhibition, MKN45; assay type: cell-based; settings: MKN-45, 72 h, read-out: IC50 MKN45
Experimental: as §1

[6] = test system: human gastric cancer cell MGC-803; experiment: CCK-8 cell proliferation inhibition, MGC-803; assay type: cell-based; settings: MGC-803, 72 h, read-out: IC50 MGC803
Experimental: as §1

Tubulin = Tubulin polymerization activity test; assay type: biochemical; settings: tubulin 4.8 mg/ml, 37° C., 340 nm; read-out: IC50 (Table 3, tubulin polymerization test)
Experimental: Tubulin (4.8 mg/ml) protein was mixed with the test compound in a PEM buffer (100 mM PIPES, 1 mM MgCl2 and 1 mM EGTA) containing 1 mM GTP and 5% glycerol. A SPECTRA MAX 190 (Molecular Device) spectrophotometer was used to monitor the microtubule polymerization at 37° C. by light scattering at 340 nm, and the microtubule polymerization was calculated from the absorbance value. Each sample was tested three times at ten different concentrations.

Arylsulfatase = Arylsulfatase activity assay in vitro; assay type: biochemical
Experimental: Weigh an appropriate amount of the test compound and dissolve it in dimethyl sulfoxide. Dilute it with Tris-HCl buffer for 2, 5, 10, 20, 50, 100, 200, 500, 1000, 2000, 5000, and 10,000 times. Add another dilution gradient to the sample. Arylsulfatase and potassium p-nitrophenyl sulfate are directly dissolved in Tris-HCl buffer. 40 μL of the test compound, 50 μL of arylsulfatase and 50 μL of potassium p-nitrobenzene sulfate were added to a 96-well plate for reaction. A blank control without enzymes and a standard control without test compounds are used. The volume is made up with Tris-HCl buffer. 405 nm detection in the microplate reader, each sample is measured for 40 times, and the interval is 30 s. The representative time node within the time period with good linearity of the absorbance value are selected for data analysis. The measured absorbance value are subtracted from the background value of the blank control and the initial value when the reaction time are 0. For comparison, calculate the inhibition rate at different concentrations, and use the built-in forecast function of excel to predict the IC50 value.

[7] = p-nitrophenyl sulfate substrate, 405 nm, read-out: IC50 sulfatase

| IC50 ([1]; CCK-8, 72 h) | IC50 ([2]; A549, CCK-8, 72 h) | IC50 ([3]; CCK-8, 72 h) | IC50 ([4]; HepG2, 72 h, CCK-8, 72 h) | IC50 ([5]; CCK-8, 72 h) | IC50 ([6]; CCK-8, 72 h) | melting point | IC50 (Arylsulfatase; read-out: sulfatase inhibitory activity) | Structure (SMILES) | IC50 [1] | IC50 ([2]; A549, 72 h) | IC50 [3] | IC50 ([4]; HepG2, 72 h) | IC50 [5] | IC50 [6] | IC50 (Tubulin) | IC50 (Arylsulfatase; [7]) | IC50 ([4]; HepG2, running text) |
| --- | --- | --- | --- | --- | --- | --- | --- | --- | --- | --- | --- | --- | --- | --- | --- | --- | --- |
| 19 µM | 21.5 µM | 40.3 µM | 11.8 µM | 27 µM | 25 µM | 136.3 to 139.7 °C | – | COc1cc(/C=C/c2cccc(OS(N)(=O)=O)c2)cc(OC)c1OC [Compound A4-2, (E)-3,4,5-trimethoxy-3′-sulfamate stilbene] | – | – | – | – | – | – | – | – | – |
| 5.64 µM | 4.86 µM | 9.12 µM | 2.63 µM | 8.05 µM | 7.63 µM | – | – | CCOc1ccc(/C=C/c2cc(OC)c(OC)c(OC)c2)cc1OS(N)(=O)=O [Compound A2-2, (E)-3,4,5-trimethoxy-4′-ethoxy-3′-sulfamate stilbene] | – | – | – | – | – | – | – | – | – |
| 9.04 µM | 15.8 µM | 3.08 µM | 1.14 µM | 11.9 µM | 3.61 µM | – | – | COc1ccc(CCc2cc(OC)c(OC)c(OC)c2)cc1OS(N)(=O)=O [Compound A1-3, 3,4,5-trimethoxy-4′-methoxy-3′-sulfamate diphenylethane] | – | – | – | – | – | – | 72.6 µM | – | – |
| – | – | – | – | – | – | – | – | C[C@]12CC[C@@H]3c4ccc(OS(N)(=O)=O)cc4CC[C@H]3[C@@H]1CCC2=O [EMATE, 3-(sulfamoyloxy)-estr-1,3,5 (10)-triene-17-one, reference compound] | – | – | – | – | – | – | 25.9 µM | 5.01 µM | – |
| 0.272 µM | 0.299 µM | 3.29 µM | 0.752 µM | 0.5 µM | 9.56 µM | 143.3 to 146.7 °C | – | COc1ccc(/C=C\c2cc(OC)c(OC)c(OC)c2)cc1NS(N)(=O)=O [Compound A5-1, (Z)-3,4,5-trimethoxy-4′-methoxy-3′-aminosulfamate stilbene] | – | – | – | – | – | – | – | – | – |
| 2.93 µM | 1.6 µM | 10.2 µM | 3.65 µM | 7.67 µM | 3.59 µM | 122.3 to 126.7 °C | – | CCOc1ccc(CCc2cc(OC)c(OC)c(OC)c2)cc1OS(N)(=O)=O [Compound A2-3, 3,4,5-trimethoxy-4′-ethoxy-3′-sulfamate diphenylethane] | – | – | – | – | – | – | – | – | – |
| 16.3 µM | 11 µM | 9.5 µM | 9.36 µM | 8.53 µM | 15.3 µM | 107.1 to 110.6 °C | < 0.5 µM | COc1cc(/C=C\c2cccc(OS(N)(=O)=O)c2)cc(OC)c1OC [Compound A4-1, (Z)-3,4,5-trimethoxy-3′-sulfamate stilbene] | – | – | – | – | – | – | – | 0.47 µM | – |
| 35.6 µM | – | 26.5 µM | 15.9 µM | 23.3 µM | 71.4 µM | 142.5 to 145.8 °C | – | COc1cc(CCc2ccc(OC(F)F)c(OS(N)(=O)=O)c2)cc(OC)c1OC [Compound A3-3] | – | – | – | – | – | – | 86.2 µM | – | – |
| 0.38 µM | 7.42 µM | 8.64 µM | 7.53 µM | 6.19 µM | 18.9 µM | 157.9 to 161.1 °C | – | COc1ccc(/C=C/c2cc(OC)c(OC)c(OC)c2)cc1NS(N)(=O)=O [Compound A5-2, (E)-3,4,5-trimethoxy-4′-methoxy-3′-aminosulfamate stilbene] | – | – | – | – | – | – | – | – | – |
| 2.93 µM | 12 µM | 30.6 µM | 8.1 µM | 8.21 µM | 73.9 µM | 122.5 to 126.5 °C | – | COc1ccc(CCc2cc(OC)c(OC)c(OC)c2)cc1NS(N)(=O)=O [Compound A5-3, 3,4,5-trimethoxy-4′-methoxy-3′-aminosulfamate diphenylethane] | – | – | – | – | – | – | – | – | – |
| 27.1 µM | 25.8 µM | 52.5 µM | 12 µM | 17.6 µM | 25.7 µM | 108.4 to 120.8 °C | – | COc1cc(CCc2cccc(OS(N)(=O)=O)c2)cc(OC)c1OC [Compound A4-3, 3,4,5-trimethoxy-3′-sulfamate diphenylethane] | – | – | – | – | – | – | – | – | – |

| Structure (SMILES) | IC50 ([1]; CCK-8, 72 h) | IC50 ([2]; A549, CCK-8, 72 h) | IC50 ([3]; CCK-8, 72 h) | IC50 ([4]; HepG2, 72 h, CCK-8, 72 h) | IC50 ([5]; CCK-8, 72 h) | IC50 ([6]; CCK-8, 72 h) | melting point | IC50 (Arylsulfatase; read-out: sulfatase inhibitory activity) | IC50 [1] | IC50 ([2]; A549, 72 h) | IC50 [3] | IC50 ([4]; HepG2, 72 h) | IC50 [5] | IC50 [6] | IC50 (Tubulin) | IC50 (Arylsulfatase; [7]) | IC50 ([4]; HepG2, running text) |
| --- | --- | --- | --- | --- | --- | --- | --- | --- | --- | --- | --- | --- | --- | --- | --- | --- | --- |
| COc1ccc(/C=C\c2cc(OC)c(OC)c(OC)c2)cc1OS(=O)(=O)N(C)C [Compound A1-5, (Z)-3,4,5-trimethoxy-4′-methoxy-3′-N,N-dimethylsulfamate stilbene] | – | – | – | – | – | – | 102.7 to 105.6 °C | – | 14.3 µM | 0.987 µM | 0.366 µM | 9.96 µM | 7.14 µM | 8.95 µM | 3.1 µM | – | – |
| COc1cc(/C=C\c2ccc(OC(F)F)c(OS(N)(=O)=O)c2)cc(OC)c1OC [Compound A3-1, (Z)-3,4,5-trimethoxy-4′-difluoromethoxy-3′-sulfamate stilbene] | – | – | – | – | – | – | 161.6 to 162.9 °C | – | 7.82 µM | 5.21 µM | 9.11 µM | 4.8 µM | 9 µM | 12.5 µM | 1.8 µM | 4.64 µM | – |
| COc1ccc(/C=C\c2cc(OC)c(OC)c(OC)c2)cc1O [CA-4, (Z)-3,4,5-trimethoxy-3′-hydroxy-4′-methoxystilbene, reference compound] | 11.3 µM | 5.99 µM | 9 µM | 16 µM | 3.44 µM | 1.76 µM | – | – | – | – | – | – | – | – | – | – | – |
| COc1cc(/C=C/c2ccc(OC(F)F)c(OS(N)(=O)=O)c2)cc(OC)c1OC [Compound A3-2, (E)-3,4,5-trimethoxy-4′-difluoromethoxy-3′-sulfamate stilbene] | – | – | – | – | – | – | 145.5 to 148.6 °C | – | 8.42 µM | 28.2 µM | 12.8 µM | 5.54 µM | 9.24 µM | 13.8 µM | 12.5 µM | – | – |
| COc1ccc(/C=C/c2cc(OC)c(OC)c(OC)c2)cc1OS(N)(=O)=O [Compound A1-2, (E)-3,4,5-trimethoxy-4′-methoxy-3′-sulfamate stilbene] | 4.5 µM | 11.4 µM | 1.57 µM | 0.87 µM | 10.5 µM | 2.98 µM | – | – | – | – | – | – | – | – | 55.7 µM | 12.9 µM | < 1 µM |
| COc1ccc(CCc2cc(OC)c(OC)c(OC)c2)cc1O [Erianin, 3,4,5-trimethoxy-3′-hydroxy-4′-methoxydiphenylethane, reference compound] | 0.207 µM | 0.22 µM | 6.29 µM | 0.237 µM | 0.425 µM | 0.449 µM | – | – | – | – | – | – | – | – | – | – | – |
| CNS(=O)(=O)Oc1cc(/C=C\c2cc(OC)c(OC)c(OC)c2)ccc1OC [Compound A1-4, (Z)-3,4,5-trimethoxy-4′-methoxy-3′-N-methylsulfamate stilbene] | – | – | – | – | – | – | 118.4 to 121.6 °C | – | 0.317 µM | 0.269 µM | 16.8 µM | 0.263 µM | 0.369 µM | 5.05 µM | – | – | – |
